Series [1] can be described thus: Incubation of a PDMS surface in contact with rhodamine solution. The series is classed as physicochemical. Particulars: 1.5 wt % solution of rhodamine, over 180 seconds.
Series [2] can be described thus: Solute diffusion from microfluidic channels into agarose hydrogel (time-lapse fluorescence). Type of series: physicochemical. Conditions: solution pumped through channels at 25 μL/min; 1.5 wt % agarose.
Description: To illustrate a dynamic solute exchange between the hydrogel and the fluid in the microchannels, a liquid suspension of 1.5 wt % agarose in DI water was pipetted into the open reservoir of the microfluidic device. After solidification of the agarose, water containing 1.0 wt % rhodamine was introduced into the inlet using a syringe pump at a constant volumetric flowrate of 25 μL/min. Time-lapse images were taken every 30 seconds using a TI-E Nikon microscope and the fluorescent intensity was measured in the resulting images using NIS-Elements software in order to track the rhodamine diffusion from the channels into the agarose hydrogel.
Water containing 1.0 wt % rhodamine (0.48 kDa) was introduced into the microfluidic channels at a flowrate of 25 μL/min. […] Florescent intensity at two points—one directly beneath a PDMS wall and another centred beneath a microfluidic channel—was tracked over time.
The conditions of series [3]: modelled value for rhodamine in 1.5% agarose hydrogel medium; cited from earlier work.

rhodamine: the “diffusion into PDMS” value in series [1] was “no detectable diffusion”. The “diffusion from microchannels into adjacent hydrogel” value in series [2] is “diffused into the adjacent hydrogel”. Also, the “diffusion coefficient D” value in series [3] is reported as 4×10^−6 cm^2/sec.
